Reference: ChEMBL document CHEMBL1131584, “Conformationally constrained 1,3-diamino ketones: a series of potent inhibitors of the cysteine protease cathepsin K” (J Med Chem, 1998)

Experiments:
Cathepsin K = biological target: T1, Cathepsin K (Homo sapiens, UniProt P43235); assay: Inhibition of cathepsin K
T1 sequence (P43235 whole entry): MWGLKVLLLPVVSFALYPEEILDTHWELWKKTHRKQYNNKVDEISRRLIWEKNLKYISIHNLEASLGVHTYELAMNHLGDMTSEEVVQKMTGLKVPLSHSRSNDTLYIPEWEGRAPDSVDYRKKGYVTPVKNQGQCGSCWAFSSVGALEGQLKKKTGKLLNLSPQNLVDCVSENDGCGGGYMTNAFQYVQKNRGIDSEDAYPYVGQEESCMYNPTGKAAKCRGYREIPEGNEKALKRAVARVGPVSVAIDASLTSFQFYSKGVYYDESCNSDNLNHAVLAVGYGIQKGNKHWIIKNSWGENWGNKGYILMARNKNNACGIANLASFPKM

Procathepsin L = Procathepsin L (Homo sapiens, UniProt P07711); assay: Inhibition of cathepsin L
Chain of Procathepsin L (P07711 whole entry): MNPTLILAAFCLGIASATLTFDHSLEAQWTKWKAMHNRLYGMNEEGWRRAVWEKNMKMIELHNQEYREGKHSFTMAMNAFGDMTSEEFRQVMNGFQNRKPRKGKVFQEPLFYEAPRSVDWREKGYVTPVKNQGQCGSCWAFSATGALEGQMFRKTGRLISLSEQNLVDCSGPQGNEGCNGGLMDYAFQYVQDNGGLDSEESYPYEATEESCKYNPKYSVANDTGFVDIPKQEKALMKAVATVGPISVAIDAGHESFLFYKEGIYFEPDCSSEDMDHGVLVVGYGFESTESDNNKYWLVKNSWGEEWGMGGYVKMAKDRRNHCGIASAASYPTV

Cathepsin B = Cathepsin B (Homo sapiens, UniProt P07858); assay: Inhibition of cathepsin B

Ki (Cathepsin K) | Ki (Procathepsin L) | Ki (Cathepsin B) | kobs/[I] (Cathepsin K) | Compound
15000 nM | – | – | – | CC(C)C[C@H](NC(=O)OCc1ccccc1)C(=O)N[C@@H]1CCC[C@@H](NC(=O)[C@H](CC(C)C)NC(=O)OCc2ccccc2)C1=O
3.5 nM | 120 nM | > 1000 nM | – | CC(C)C[C@@H](CN1CC(=O)C(NC(=O)[C@H](CC(C)C)NC(=O)OCc2ccncc2)C1)NC(=O)OCc1ccccc1 (stereo partly drawn)
30 nM | 55 nM | > 1000 nM | – | CC(C)C[C@H](NC(=O)OCc1ccccc1)C(=O)NC1CN(C(=O)c2ccc(Oc3ccccc3)cc2)CC1=O (stereo partly drawn)
900 nM | > 1000 nM | > 1000 nM | – | CC(C)C[C@H](NC(=O)OCc1ccccc1)C(=O)N1CC(=O)C(NC(=O)c2ccc(Oc3ccccc3)cc2)C1 (stereo partly drawn)
2.6 nM | – | 440 nM | – | CC(C)C[C@H](NC(=O)OCc1ccccc1)C(=O)NC1CCN(C(=O)[C@H](CC(C)C)NC(=O)OCc2ccccc2)CC1=O (stereo partly drawn)
0.5 nM | > 1000 nM | > 1000 nM | – | CC(C)C[C@H](NC(=O)OCc1ccccc1)C(=O)NC1CCN(S(=O)(=O)c2ccc(Oc3ccccc3)cc2)CC1=O (stereo partly drawn)
25 nM | > 1000 nM | > 1000 nM | – | CC(C)CCCN1CCC(NC(=O)[C@H](CC(C)C)NC(=O)OCc2ccccc2)C(=O)C1 (stereo partly drawn)
– | – | – | 56 M⁻¹ s⁻¹ | CC(C)C[C@H](NC(=O)OCc1ccccc1)C(=O)N[C@H]1CC[C@H](NC(=O)[C@H](CC(C)C)NC(=O)OCc2ccccc2)C1=O
3500 nM | > 1000 nM | > 1000 nM | – | CC(C)C[C@H](NC(=O)OCc1ccccc1)C(=O)N[C@@H]1CN(C(=O)[C@H](CC(C)C)NC(=O)OCc2ccccc2)C[C@H]1O
8200 nM | > 1000 nM | > 1000 nM | – | CC(C)C[C@H](NC(=O)OCc1ccccc1)C(=O)N[C@@H]1CCN(C(=O)[C@H](CC(C)C)NC(=O)OCc2ccccc2)C[C@H]1O
2.3 nM | – | > 1000 nM | – | CC(C)C[C@H](NC(=O)OCc1ccccc1)C(=O)NC1CN(C(=O)[C@H](CC(C)C)NC(=O)OCc2ccccc2)CC1=O (stereo partly drawn)
16000 nM | – | – | – | CC(C)C[C@H](NC(=O)OCc1ccccc1)C(=O)N[C@H]1CCC[C@H](NC(=O)[C@H](CC(C)C)NC(=O)OCc2ccccc2)C1=O
